Here are results for three molecules from patent publication US12479847B2 (DANA-FARBER CANCER INSTITUTE, INC., priority 2019, dated 2025).

Holding throughout (test): KINOMEscan (ScanMAX) kinase profiling
Type in all cases: binding

The target of test [1] is T1, panel of 468 kinases (Homo sapiens, UniProt Q9Y4K4).
T1 construct: purchased KINOMEscan (ScanMAX) service
The conditions noted are these: MAP4K5; 1 μM; read-out: % control.

Test [2] deals with T2, panel of 468 kinases (Homo sapiens, UniProt P36896).
T2 construct: purchased KINOMEscan (ScanMAX) service
T2 sequence (P36896 24-505): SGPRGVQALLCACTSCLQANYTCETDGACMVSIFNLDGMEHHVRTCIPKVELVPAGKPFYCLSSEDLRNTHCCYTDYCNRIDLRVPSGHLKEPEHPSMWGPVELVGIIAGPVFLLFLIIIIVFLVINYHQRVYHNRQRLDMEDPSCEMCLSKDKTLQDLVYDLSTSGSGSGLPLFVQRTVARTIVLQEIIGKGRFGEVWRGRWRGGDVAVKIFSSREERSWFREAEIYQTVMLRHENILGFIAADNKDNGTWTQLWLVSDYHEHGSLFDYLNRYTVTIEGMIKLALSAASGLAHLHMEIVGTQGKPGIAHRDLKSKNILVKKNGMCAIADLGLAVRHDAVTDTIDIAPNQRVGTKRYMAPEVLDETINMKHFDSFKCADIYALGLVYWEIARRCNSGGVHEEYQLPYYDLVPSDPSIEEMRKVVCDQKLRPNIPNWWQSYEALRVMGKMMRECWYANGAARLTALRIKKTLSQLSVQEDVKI
The conditions noted are these: ACVR1B; 1 μM; read-out: % control.

Test [3] concerns the target T3, panel of 468 kinases (Homo sapiens, UniProt Q02779).
T3 construct: purchased KINOMEscan (ScanMAX) service
The conditions noted are these: MLK2; 1 μM; read-out: % control.

Test [4] deals with T4, panel of 468 kinases (Homo sapiens, UniProt O15530).
T4 construct: purchased KINOMEscan (ScanMAX) service
T4 sequence (O15530 1-556): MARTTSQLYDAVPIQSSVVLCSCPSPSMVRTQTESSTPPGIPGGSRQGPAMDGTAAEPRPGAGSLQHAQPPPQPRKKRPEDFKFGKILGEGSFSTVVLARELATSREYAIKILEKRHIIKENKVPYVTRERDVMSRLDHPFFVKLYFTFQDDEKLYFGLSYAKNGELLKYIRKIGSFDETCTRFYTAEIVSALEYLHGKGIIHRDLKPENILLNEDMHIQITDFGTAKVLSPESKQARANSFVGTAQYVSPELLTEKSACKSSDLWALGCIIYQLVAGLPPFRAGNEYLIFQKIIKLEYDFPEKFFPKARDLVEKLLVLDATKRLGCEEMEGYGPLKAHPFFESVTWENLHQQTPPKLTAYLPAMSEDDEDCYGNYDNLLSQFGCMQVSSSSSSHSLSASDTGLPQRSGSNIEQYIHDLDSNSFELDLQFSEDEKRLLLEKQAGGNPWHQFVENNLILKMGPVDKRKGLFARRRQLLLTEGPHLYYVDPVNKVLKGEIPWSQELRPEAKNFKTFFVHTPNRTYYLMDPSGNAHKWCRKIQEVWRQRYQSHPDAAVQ
The conditions noted are these: PDPK1; 1 μM; read-out: % control.

In test [5] the target is T5, panel of 468 kinases (Homo sapiens, UniProt P54646).
T5 construct: purchased KINOMEscan (ScanMAX) service
T5 sequence (P54646 whole entry): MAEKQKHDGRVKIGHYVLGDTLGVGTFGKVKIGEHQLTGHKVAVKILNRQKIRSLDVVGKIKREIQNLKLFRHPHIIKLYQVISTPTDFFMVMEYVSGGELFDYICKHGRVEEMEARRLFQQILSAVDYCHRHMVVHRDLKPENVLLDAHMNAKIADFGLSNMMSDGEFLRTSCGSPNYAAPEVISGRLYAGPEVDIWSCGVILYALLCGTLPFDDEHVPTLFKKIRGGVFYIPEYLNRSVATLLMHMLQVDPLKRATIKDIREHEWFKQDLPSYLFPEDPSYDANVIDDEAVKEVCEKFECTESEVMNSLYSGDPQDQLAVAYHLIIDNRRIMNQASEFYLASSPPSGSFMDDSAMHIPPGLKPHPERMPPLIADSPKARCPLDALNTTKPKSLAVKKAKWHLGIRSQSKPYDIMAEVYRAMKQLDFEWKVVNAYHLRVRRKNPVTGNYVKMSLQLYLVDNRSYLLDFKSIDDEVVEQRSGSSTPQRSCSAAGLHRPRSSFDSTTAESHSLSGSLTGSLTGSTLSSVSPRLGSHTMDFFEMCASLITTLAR
The conditions noted are these: AMPK-alpha2; 1 μM; read-out: % control.

For test [6], the target named is T6, panel of 468 kinases (Homo sapiens, UniProt Q9UHD2).
T6 construct: purchased KINOMEscan (ScanMAX) service
T6 sequence (Q9UHD2 1-729): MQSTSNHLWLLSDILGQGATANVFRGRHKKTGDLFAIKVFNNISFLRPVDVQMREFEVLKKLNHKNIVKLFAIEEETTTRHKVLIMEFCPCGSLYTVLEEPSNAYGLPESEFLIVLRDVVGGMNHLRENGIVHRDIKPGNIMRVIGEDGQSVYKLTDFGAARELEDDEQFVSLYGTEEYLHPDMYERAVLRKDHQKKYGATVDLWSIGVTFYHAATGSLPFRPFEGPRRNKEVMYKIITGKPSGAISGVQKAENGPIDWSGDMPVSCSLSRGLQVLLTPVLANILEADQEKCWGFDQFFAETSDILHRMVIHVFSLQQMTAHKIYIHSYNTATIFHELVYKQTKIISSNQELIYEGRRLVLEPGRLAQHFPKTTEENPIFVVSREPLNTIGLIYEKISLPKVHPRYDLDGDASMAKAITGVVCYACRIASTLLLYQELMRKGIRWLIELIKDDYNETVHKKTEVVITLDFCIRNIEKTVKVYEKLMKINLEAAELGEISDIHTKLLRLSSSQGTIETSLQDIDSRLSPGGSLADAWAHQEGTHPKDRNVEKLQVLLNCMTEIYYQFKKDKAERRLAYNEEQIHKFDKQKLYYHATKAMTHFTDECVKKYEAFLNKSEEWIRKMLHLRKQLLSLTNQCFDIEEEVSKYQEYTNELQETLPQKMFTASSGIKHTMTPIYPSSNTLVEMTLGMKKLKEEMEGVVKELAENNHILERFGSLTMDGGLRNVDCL
The conditions noted are these: TBK1; 1 μM; read-out: % control.

The target of test [7] is T7, panel of 468 kinases (Homo sapiens, UniProt P10721, A829P).
T7 construct: purchased KINOMEscan (ScanMAX) service
T7 sequence (P10721 26-976 A829P): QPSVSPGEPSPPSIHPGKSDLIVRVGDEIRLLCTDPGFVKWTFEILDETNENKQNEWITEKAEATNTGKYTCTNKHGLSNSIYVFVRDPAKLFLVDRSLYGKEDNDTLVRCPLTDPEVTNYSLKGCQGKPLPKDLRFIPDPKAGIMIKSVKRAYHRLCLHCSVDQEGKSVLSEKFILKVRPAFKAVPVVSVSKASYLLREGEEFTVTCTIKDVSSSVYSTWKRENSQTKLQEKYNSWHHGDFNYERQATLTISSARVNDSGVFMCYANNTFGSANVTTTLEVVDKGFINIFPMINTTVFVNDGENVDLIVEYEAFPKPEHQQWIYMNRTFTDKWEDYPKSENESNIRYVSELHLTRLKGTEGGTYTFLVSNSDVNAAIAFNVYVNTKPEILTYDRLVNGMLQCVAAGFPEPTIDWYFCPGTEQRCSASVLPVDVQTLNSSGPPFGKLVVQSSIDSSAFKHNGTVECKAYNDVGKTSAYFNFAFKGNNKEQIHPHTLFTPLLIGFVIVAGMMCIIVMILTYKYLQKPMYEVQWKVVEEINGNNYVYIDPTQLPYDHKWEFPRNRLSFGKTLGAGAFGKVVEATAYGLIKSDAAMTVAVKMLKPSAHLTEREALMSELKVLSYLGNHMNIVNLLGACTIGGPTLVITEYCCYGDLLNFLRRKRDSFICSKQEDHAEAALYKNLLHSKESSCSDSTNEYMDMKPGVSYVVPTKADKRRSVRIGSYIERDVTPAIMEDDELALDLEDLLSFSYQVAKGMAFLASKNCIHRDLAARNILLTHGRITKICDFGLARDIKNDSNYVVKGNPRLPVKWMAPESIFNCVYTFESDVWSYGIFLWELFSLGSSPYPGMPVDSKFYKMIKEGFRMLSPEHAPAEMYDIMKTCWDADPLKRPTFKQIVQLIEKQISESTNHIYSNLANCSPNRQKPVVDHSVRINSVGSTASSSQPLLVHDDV
The conditions noted are these: KIT(A829P); 1 μM; read-out: % control.

The target in test [8] is T8, panel of 468 kinases (Homo sapiens, UniProt P10721, D816H).
T8 construct: purchased KINOMEscan (ScanMAX) service
T8 sequence (P10721 26-976 D816H): as the sequence (P10721 26-976 A829P) above, with D791H, P804A counted along it
The conditions noted are these: KIT(D816H); 1 μM; read-out: % control.

For test [9], the target named is T9, panel of 468 kinases (Homo sapiens, UniProt P21802).
T9 construct: purchased KINOMEscan (ScanMAX) service
T9 sequence (P21802 22-821): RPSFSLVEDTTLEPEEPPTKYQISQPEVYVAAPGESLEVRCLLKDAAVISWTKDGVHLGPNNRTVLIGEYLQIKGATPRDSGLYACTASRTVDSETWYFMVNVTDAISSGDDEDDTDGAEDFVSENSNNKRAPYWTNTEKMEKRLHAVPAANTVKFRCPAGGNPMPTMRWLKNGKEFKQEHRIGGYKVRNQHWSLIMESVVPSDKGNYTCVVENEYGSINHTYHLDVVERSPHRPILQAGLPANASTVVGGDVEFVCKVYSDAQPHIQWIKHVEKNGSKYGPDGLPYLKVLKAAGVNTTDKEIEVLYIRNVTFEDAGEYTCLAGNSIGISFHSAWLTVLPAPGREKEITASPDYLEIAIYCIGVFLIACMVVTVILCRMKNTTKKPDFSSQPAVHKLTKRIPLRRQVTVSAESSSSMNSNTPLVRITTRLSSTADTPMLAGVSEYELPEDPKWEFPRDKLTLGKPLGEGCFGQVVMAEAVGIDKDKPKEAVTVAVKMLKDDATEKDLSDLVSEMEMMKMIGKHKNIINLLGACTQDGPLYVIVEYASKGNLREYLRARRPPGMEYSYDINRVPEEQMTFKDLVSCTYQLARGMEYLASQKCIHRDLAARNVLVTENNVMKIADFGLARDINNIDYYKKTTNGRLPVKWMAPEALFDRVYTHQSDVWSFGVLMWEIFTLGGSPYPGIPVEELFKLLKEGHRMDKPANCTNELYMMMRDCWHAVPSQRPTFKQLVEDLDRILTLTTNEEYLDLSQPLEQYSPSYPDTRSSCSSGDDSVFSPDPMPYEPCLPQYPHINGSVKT
The conditions noted are these: FGFR2; 1 μM; read-out: % control.

In test [10] the target is T10, panel of 468 kinases (Homo sapiens, UniProt P27037).
T10 construct: purchased KINOMEscan (ScanMAX) service
T10 sequence (P27037 20-513): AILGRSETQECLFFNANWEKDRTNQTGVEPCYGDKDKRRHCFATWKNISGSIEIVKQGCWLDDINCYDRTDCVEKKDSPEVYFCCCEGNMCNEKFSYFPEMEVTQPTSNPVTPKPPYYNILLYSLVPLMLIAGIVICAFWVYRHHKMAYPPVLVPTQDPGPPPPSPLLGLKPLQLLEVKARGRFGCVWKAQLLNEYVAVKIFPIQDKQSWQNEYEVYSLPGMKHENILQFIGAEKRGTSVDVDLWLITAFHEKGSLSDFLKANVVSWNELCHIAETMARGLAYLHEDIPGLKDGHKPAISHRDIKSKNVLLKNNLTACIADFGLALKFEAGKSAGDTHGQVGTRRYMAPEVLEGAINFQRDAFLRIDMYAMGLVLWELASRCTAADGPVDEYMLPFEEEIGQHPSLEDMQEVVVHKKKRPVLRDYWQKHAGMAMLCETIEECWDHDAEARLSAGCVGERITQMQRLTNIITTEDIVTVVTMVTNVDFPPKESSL
The conditions noted are these: ACVR2A; 1 μM; read-out: % control.

For test [11], the target named is T11, panel of 468 kinases (Homo sapiens, UniProt P49760).
T11 construct: purchased KINOMEscan (ScanMAX) service
T11 sequence (P49760 whole entry): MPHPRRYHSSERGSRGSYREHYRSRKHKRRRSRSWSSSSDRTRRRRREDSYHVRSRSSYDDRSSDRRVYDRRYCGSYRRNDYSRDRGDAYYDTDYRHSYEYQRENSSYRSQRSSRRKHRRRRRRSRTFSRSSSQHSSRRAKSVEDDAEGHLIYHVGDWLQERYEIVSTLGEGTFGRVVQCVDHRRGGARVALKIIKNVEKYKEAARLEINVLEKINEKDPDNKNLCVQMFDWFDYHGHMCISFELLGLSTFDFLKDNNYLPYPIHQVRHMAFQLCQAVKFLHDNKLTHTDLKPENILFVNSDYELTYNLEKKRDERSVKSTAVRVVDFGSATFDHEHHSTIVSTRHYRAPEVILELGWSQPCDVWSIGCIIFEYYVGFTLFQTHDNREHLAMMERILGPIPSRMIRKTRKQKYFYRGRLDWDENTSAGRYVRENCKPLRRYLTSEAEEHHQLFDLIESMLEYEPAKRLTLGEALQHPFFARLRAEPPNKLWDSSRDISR
The conditions noted are these: CLK2; 1 μM; read-out: % control.

T1 sequence (Q9Y4K4 whole entry): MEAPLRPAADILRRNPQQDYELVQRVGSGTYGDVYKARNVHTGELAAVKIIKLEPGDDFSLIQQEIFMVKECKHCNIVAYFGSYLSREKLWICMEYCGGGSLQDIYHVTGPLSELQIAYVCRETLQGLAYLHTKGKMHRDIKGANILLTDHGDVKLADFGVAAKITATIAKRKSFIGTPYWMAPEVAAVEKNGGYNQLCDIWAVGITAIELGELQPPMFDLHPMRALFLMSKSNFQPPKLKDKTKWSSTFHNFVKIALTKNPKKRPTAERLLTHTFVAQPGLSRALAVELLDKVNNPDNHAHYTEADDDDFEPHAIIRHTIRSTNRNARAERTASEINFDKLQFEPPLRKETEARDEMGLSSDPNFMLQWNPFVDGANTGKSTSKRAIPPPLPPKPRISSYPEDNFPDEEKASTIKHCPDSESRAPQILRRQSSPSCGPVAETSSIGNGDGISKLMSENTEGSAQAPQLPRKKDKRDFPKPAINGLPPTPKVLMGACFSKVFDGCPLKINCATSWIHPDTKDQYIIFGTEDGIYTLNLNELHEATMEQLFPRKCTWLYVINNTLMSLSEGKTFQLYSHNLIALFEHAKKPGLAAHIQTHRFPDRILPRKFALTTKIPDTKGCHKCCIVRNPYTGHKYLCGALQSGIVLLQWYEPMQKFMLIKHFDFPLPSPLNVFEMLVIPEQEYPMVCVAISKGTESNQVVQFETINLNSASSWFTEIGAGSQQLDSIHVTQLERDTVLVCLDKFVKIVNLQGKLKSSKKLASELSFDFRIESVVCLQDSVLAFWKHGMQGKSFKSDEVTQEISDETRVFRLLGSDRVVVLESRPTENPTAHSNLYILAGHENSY

Regarding `CNc1nc(Nc2ccc(S(=O)(=O)N3CCC(N4CCOCC4)CC3)cc2OC)nc2[nH]cc(Cl)c12` [Compound 12, 5-chloro-N2-(2-methoxy-4-((4-morpholinopiperidin-1-yl)sulfonyl)phenyl)-N4-methyl-7H-pyrrolo[2,3-d]pyrimidine-2,4-diamine], the remaining binding at 1 µM is 100% in test [1]; 100% in test [2]; 99% in [3]; 95% in test [4]; 82% in [5]; 95% in test [6]. Besides, the remaining binding at 1 µM is 76% in test [7]; 100% in test [8]; 100% in test [9]; 100% in test [10]; 55% in test [11].
On to `CNc1nc(Nc2ccc(C(=O)N3CCC(N4CCOCC4)CC3)c3c2OCO3)nc2[nH]cc(Cl)c12` [Compound 75, (7-((5-chloro-4-(methylamino)-7H-pyrrolo[2,3-d]pyrimidin-2-yl)amino)benzo[d][1,3]dioxol-4-yl)(4-morpholinopiperidin-1-yl)methanone], for which the remaining binding at 1 µM came out at 91% in test [1]; 100% in test [2]; 93% in [3]; 98% in test [4]; 87% in [5]; 34% in test [6]. For the same molecule, the remaining binding at 1 µM in test [7] was 50%; in test [8], 99%; in test [9], 97%; in test [10], 100%; in [11], 21%.
Consider `CNc1nc(Nc2ccc(P3(=O)CCN(C4CCOCC4)CC3)cc2OC)nc2[nH]cc(Cl)c12` [Compound 77, 4-(4-((5-chloro-4-(methylamino)-7H-pyrrolo[2,3-d]pyrimidin-2-yl)amino)-3-methoxyphenyl)-1-(tetrahydro-2H-pyran-4-yl)-1,4-azaphosphinane 4-oxide], for which the remaining binding at 1 µM worked out at 100% in test [1]; 100% in test [2]; 99% in test [3]; 100% in test [4]; 90% in test [5]; 85% in test [6]. Besides, the remaining binding at 1 µM in test [7] came out at 78%; in test [8] it was 93%; in [9], 100%; in [10], 100%; in test [11], 28%.
